Results on 55 compounds are retold here after patent US20260200890A1, “ADAR1 INHIBITORS AND METHODS OF USING THE SAME” (AVAMMUNE THERAPEUTICS INC., priority 2022, published 2026).

The assay concerns the target T1, ADAR1 (Homo sapiens, UniProt P55265).
T1 construct: endogenous in cells; host or cells: p110 KO A549 dual cells
T1 sequence (P55265 1-1226): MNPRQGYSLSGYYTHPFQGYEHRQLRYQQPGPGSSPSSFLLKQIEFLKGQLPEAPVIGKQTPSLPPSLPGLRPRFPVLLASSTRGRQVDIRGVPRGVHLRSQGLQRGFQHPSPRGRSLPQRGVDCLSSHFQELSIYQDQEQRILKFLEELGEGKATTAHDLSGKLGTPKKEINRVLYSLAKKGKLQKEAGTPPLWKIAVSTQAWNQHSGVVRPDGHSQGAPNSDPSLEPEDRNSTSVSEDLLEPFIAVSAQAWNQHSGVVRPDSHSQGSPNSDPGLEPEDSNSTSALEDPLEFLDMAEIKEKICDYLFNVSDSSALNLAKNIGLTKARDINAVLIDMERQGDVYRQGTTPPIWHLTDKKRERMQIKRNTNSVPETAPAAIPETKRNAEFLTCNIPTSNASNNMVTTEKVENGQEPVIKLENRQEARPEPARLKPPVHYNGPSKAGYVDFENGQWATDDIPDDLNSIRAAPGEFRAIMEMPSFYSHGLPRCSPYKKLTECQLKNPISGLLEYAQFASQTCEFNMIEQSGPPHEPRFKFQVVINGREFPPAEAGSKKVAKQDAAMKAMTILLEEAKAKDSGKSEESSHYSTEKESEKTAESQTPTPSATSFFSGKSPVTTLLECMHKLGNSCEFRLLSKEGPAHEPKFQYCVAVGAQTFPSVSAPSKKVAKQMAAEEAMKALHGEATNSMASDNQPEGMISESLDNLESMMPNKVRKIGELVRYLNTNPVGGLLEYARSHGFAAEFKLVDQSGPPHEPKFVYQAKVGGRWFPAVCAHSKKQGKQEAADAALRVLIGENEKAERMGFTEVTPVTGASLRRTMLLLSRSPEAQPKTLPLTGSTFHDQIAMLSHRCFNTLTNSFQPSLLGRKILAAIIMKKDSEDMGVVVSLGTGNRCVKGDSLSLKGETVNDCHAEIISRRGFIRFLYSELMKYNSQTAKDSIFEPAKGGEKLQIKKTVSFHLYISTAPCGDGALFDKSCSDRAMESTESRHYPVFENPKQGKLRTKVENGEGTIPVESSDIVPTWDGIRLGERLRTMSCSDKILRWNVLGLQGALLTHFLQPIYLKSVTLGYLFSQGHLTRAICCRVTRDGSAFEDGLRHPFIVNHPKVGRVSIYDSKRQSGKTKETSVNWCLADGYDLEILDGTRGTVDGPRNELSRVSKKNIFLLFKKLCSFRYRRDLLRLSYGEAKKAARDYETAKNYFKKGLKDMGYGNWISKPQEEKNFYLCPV
Briefly: ADAR1 Inhibition Assay (IFN fold-induction, Quanti-Luc luminescence, p110 KO A549 dual cells). In kind it is cell-based. The note with it: IFN fold-induction vs DMSO, 24 and 48 h. As for the experimental part: An ADAR1 Inhibition Assay was used to determine the biological activity (EC50) of compounds disclosed herein. 100 μL of p110 KO A549 dual cell suspension in supplemented DMEM (20,000 cells per well) was added into a flat bottom 96 well plate. Next day, post media change, 180 μL of supplemented DMEM was added. 20 μL of test compound or positive control was added to the respective wells (Final concentration of DMSO is 1%). The plate was incubated for 24 and 48 hours at 37° C. in a 5% CO2 incubator. After 24 and 48 h, 20 μL of cell suspension was taken in black well plates and 50 μL of Quanti-Luc was added to each well and luminescence was measured using a microplate reader (Spectra Max). IFN fold-induction was plotted considering DMSO as control using the relative luminescence unit (RLU) values. (Fold induction: Sample RLU/Average DMSO RLU).

For `CCOC(=O)c1c(-c2ccccc2)csc1NC(=O)COC(=O)c1cccc(S(N)(=O)=O)c1` [Compound 3], the concentration giving a half-maximal response (EC50) was over 100 µM.

With `CCOC(=O)c1cc(-c2ccccc2)sc1NC(=O)CNC(=O)c1cccc(S(=O)(=O)N(C)C)c1` [Compound 4], the half-maximal effective concentration (EC50) is over 100 µM.

In turn, `CCOC(=O)c1cc(-c2ccccc2)sc1NC(=O)COC(=O)c1ccccc1` [Compound 5] returned a 50% effective concentration (EC50) of over 100 µM.

Compound `CCOC(=O)c1cc(-c2ccccc2)sc1NC(=O)CNC(=O)c1ccccc1` [Compound 6] showed a concentration for a half-maximal effect (EC50) of over 100 µM.

`CCOC(=O)c1cc(-c2ccccc2)sc1NC(=O)COC(=O)c1cccc(S(=O)(=O)N(C)C)c1` [Compound 7]: the EC50 is over 100 µM.

Regarding `CCOC(=O)c1cc(-c2ccccc2)sc1NC(=O)CNc1cccc(S(N)(=O)=O)c1` [Compound 8], the half-maximal effective concentration (EC50) is over 100 µM.

As to `COC(=O)c1nc(NC(=O)COC(=O)c2cccc(S(N)(=O)=O)c2)sc1Br` [Compound 9], the EC50 was over 100 µM.

The compound `CCOC(=O)c1cc(-c2ccccc2)sc1NC(=O)c1cccc(S(N)(=O)=O)c1` [Compound 10] returned a 50% effective concentration (EC50) of over 100 µM.

In turn, `CCOC(=O)c1cc(-c2ccccc2)sc1NC(=O)CNC(=O)c1cccc(S(=O)(=O)NC)c1` [Compound 11] displayed an EC50 of over 100 µM.

`CCOC(=O)c1cc(-c2ccccc2)sc1NC(=O)CN` [Compound 12] gave an EC50 of over 100 µM.

`CCOC(=O)c1cc(-c2ccccc2)sc1NC(=O)CNCCS(N)(=O)=O` [Compound 14] displayed an EC50 of over 100 µM.

As for `CCOC(=O)c1cc(-c2ccccc2)sc1NC(=O)CNc1cccc(S(=O)(=O)N(C)C)c1` [Compound 15], the EC50 is over 100 µM.

`CCOC(=O)c1cc(-c2ccccc2)sc1NC(=O)CNC(=O)c1ccc(Br)s1` [Compound 16]: the EC50 was over 100 µM.

`CCOC(=O)c1cc(-c2ccccc2)sc1NC(=O)CN(C)C` [Compound 17]: the EC50 is over 100 µM.

For the compound `NS(=O)(=O)c1cccc(C(=O)NCC(=O)Nc2ccc(-c3ccccc3)s2)c1` [Compound 18], the EC50 is over 100 µM.

`NS(=O)(=O)c1cccc(NC(=O)CNC(=O)c2ccc(-c3cccnc3)s2)c1` [Compound 19] returned an EC50 of over 100 µM.

As to `NS(=O)(=O)c1cccc(NC(=O)CNC(=O)c2csc(-c3cccnc3)n2)c1` [Compound 20], the half-maximal effective concentration (EC50) was over 100 µM.

In turn, `CCOC(=O)c1cc(-c2ccccc2)sc1NC(=O)Nc1cccc(S(N)(=O)=O)c1` [Compound 21] showed a 50% effective concentration (EC50) of over 100 µM.

Compound `COC(=O)c1ccsc1NC(=O)CNC(=O)c1cccc(S(N)(=O)=O)c1` [Compound 22] showed an EC50 of over 100 µM.

Consider `NS(=O)(=O)c1cccc(C(=O)NCC(=O)Nc2nc3ccccc3s2)c1` [Compound 23], for which the EC50 was over 100 µM.

`CCOC(=O)c1cc(-c2ccccc2)sc1NC(=O)CNC(=O)c1ccc(S(N)(=O)=O)cc1` [Compound 24] showed an EC50 of over 100 µM.

With `NS(=O)(=O)c1cccc(NC(=O)c2csc(-c3ccccc3)c2)c1` [Compound 25], the 50% effective concentration (EC50) was over 100 µM.

In turn, `CCOC(=O)c1cc(-c2ccccc2)sc1NC(=O)CNS(=O)(=O)c1ccc(C)cc1` [Compound 27] had an EC50 of over 100 µM.

Compound `CCOC(=O)c1cc(-c2ccccc2)sc1NC(=O)CNC(=O)c1cccc(S(=O)(=O)N2CCOCC2)c1` [Compound 28] gave an EC50 of over 100 µM.

On to `CCOC(=O)c1cc(-c2ccccc2)sc1NC(=O)CNC(=O)c1cccc(S(=O)(=O)N2CCCC2)c1` [Compound 29], for which the 50% effective concentration (EC50) was over 100 µM.

The compound `NS(=O)(=O)c1cccc(NC(=O)CNC(=O)c2csc(-c3ccccc3)c2)c1` [Compound 30] yielded a concentration for a half-maximal effect (EC50) of over 100 µM.

As for `CCOC(=O)c1cc(-c2ccccc2)sc1NC(=O)CNC(=O)c1ccc(F)c(S(N)(=O)=O)c1` [Compound 31], the EC50 is over 100 µM.

On to `NS(=O)(=O)c1cccc(NC(=O)Cn2nnc(-c3ccccn3)n2)c1` [Compound 32], for which the EC50 is over 100 µM.

The compound `COC(=O)c1cc(-c2ccncc2)sc1NC(=O)c1cccc(S(N)(=O)=O)c1` [Compound 33] returned a concentration for a half-maximal effect (EC50) of over 100 µM.

`Cc1cccc(Cl)c1NC(=O)c1csc(NC(=O)c2cccc(S(N)(=O)=O)c2)n1` [Compound 35] gave an EC50 of over 100 µM.

In turn, `CCOC(=O)c1cc(-c2ccccc2)sc1NC(=O)CNC(=O)c1cccc(S(=O)(=O)N2CCCCC2)c1` [Compound 36] returned a 50% effective concentration (EC50) of over 100 µM.

Take `CCOC(=O)c1cc(-c2ccccc2)sc1NC(=O)COC(=O)c1cc(S(N)(=O)=O)ccc1F` [Compound 37]: the concentration giving a half-maximal response (EC50) is over 100 µM.

Compound `COC(=O)c1cc(-c2ccncc2)sc1NC(=O)CNC(=O)c1cccc(S(N)(=O)=O)c1` [Compound 38] displayed a concentration giving a half-maximal response (EC50) of over 100 µM.

On to `NS(=O)(=O)c1cccc(NC(=O)CNC(=O)c2ccc(-c3ccccc3)s2)c1` [Compound 40], for which the EC50 was over 100 µM.

The compound `CCOC(=O)c1cc(-c2ccccc2)sc1NC(=O)CNC(=O)c1cccc(S(=O)(=O)NC(C)C)c1` [Compound 41] registered an EC50 of over 100 µM.

`NS(=O)(=O)c1cccc(C(=O)NCC(=O)Nc2ccc3cc(Br)ccc3c2)c1` [Compound 43] registered a half-maximal effective concentration (EC50) of over 100 µM.

For the compound `CCOC(=O)c1cc(-c2ccccc2)sc1NC(=O)CNC(=O)c1cccc(S(=O)(=O)N2CCNCC2)c1` [Compound 47], the 50% effective concentration (EC50) is over 100 µM.

The compound `Cc1nc(-c2ccccc2)sc1C(=O)NCC(=O)Nc1cccc(S(N)(=O)=O)c1` [Compound 48] registered an EC50 of over 100 µM.

As to `NS(=O)(=O)c1cccc(C(=O)NCC(=O)Nc2nnc(-c3ccccc3)s2)c1` [Compound 49], the EC50 was over 100 µM.

Take `CCOC(=O)c1cc(-c2ccccc2)sc1NC(=O)COC(=O)c1cccc(C(N)=O)c1` [Compound 50]: the EC50 is over 100 µM.

Regarding `CCOC(=O)c1cc(-c2cc(F)cc(F)c2)sc1NC(=O)COC(=O)c1cccc(S(N)(=O)=O)c1` [Compound 52], the EC50 was over 100 µM.

In turn, `CCOC(=O)c1cc(-c2ccccc2)sc1NC(=O)CNC(=O)c1cc(S(N)(=O)=O)ccc1C` [Compound 53] yielded an EC50 of over 100 µM.

Consider `CCOC(=O)c1c(NC(=O)COC(=O)c2cccc(S(N)(=O)=O)c2)sc(C)c1C` [Compound 54], for which the concentration giving a half-maximal response (EC50) was over 100 µM.

The compound `CCOC(=O)c1cc(-c2ccccc2)sc1NC(=O)c1cccc(S(=O)(=O)NC)c1` [Compound 55] had an EC50 of over 100 µM.

`CCOC(=O)c1cc(-c2ccccc2)sc1NC(=O)CNC(=O)c1cc(S(N)(=O)=O)ccc1F` [Compound 56]: the EC50 is over 100 µM.

Turning to `COC(=O)c1nc(NC(=O)COC(=O)c2cccc(S(N)(=O)=O)c2)sc1-c1ccccc1` [Compound 57], the EC50 was over 100 µM.

`CCOC(=O)c1cc(-c2ccccc2)sc1NC(=O)COC(=O)c1cccc(S(=O)(=O)N2CCOCC2)c1` [Compound 58] came in with an EC50 of over 100 µM.

`CCOC(=O)c1cc(-c2ccccc2)sc1NC(=O)COC(=O)c1cccc(S(=O)(=O)N2CCC(N)C2)c1` (stereo not shown) [Compound 59] had a 50% effective concentration (EC50) of over 100 µM.

In turn, `CCOC(=O)c1cc(-c2ccccc2)sc1NC(=O)COC(=O)c1cccc(O)c1` [Compound 60] returned a 50% effective concentration (EC50) of over 100 µM.

`CCOC(=O)c1cc(-c2ccccc2)sc1NC(=O)CNS(=O)(=O)c1cccc(CO)c1` [Compound 61] showed a half-maximal effective concentration (EC50) of over 100 µM.

`CCOC(=O)c1cc(-c2ccccc2)sc1NC(=O)COC(=O)c1cccc(OC(F)(F)F)c1` [Compound 63] came in with an EC50 of over 100 µM.

Take `CCOC(=O)c1cc(-c2ccccc2)sc1NC(=O)COC(=O)c1cccc(C(C)=O)c1` [Compound 64]: the EC50 is at most 25 µM.

`CCOC(=O)c1cc(-c2ccccc2)sc1NC(=O)COC(=O)c1cccc(S(C)(=O)=O)c1` [Compound 65] yielded a half-maximal effective concentration (EC50) of over 100 µM.

`CCOC(=O)c1cc(-c2ccccc2)sc1NC(=O)COC(=O)c1ccc(S(N)(=O)=O)cc1` [Compound 68] returned an EC50 of over 100 µM.

For the compound `CCOC(=O)c1cc(-c2ccccc2)sc1NC(=O)COC(=O)c1ccc(F)c(S(N)(=O)=O)c1` [Compound 69], the EC50 was over 100 µM.

By EC50 is commonly meant the concentration giving half of the maximal effect.
